Literature values in patent publication US7968545B2 (priority 2003, dated 2011).

Legend:
[1] = human, in vivo
[2] = in vivo
[3] = in vivo; remark: listed apart in the source

| Compound | share of patients in whom it works [1] [%] | success rate for the treatment of pain [2] [%] | reduction of infarct size [3] |
| --- | --- | --- | --- |
| NCC1(CC(=O)O)CCCCC1 [Gabapentin] | 60 |  |  |
| CSCC[C@@H]1NC(=O)[C@H](CC(C)C)NC(=O)[C@H](CCCNC(=N)N)NC(=O)[C@H](CO)NC(=O)[C@@H]2CSSC[C@@H]3NC(=O)[C@H](CO)NC(=O)CNC(=O)[C@H]([C@@H](C)O)NC(=O)[C@H](CSSC[C@H](N)C(=O)N[C@@H](CCCCN)C(=O)NCC(=O)N[C@@H](CCCCN)C(=O)NCC(=O)N[C@@H](C)C(=O)N[C@@H](CCCCN)C(=O)N2)NC(=O)[C@H](CSSC[C@@H](C(N)=O)NC(=O)[C@H](CCCCN)NC(=O)CNC(=O)[C@H](CO)NC(=O)[C@H](CCCNC(=N)N)NC3=O)NC(=O)[C@H](CC(=O)O)NC(=O)[C@H](Cc2ccc(O)cc2)NC1=O [Ziconotide, ω-conotoxin-MVIIA] |  | 85 | effective in reducing infarct size |
